Data published in patent publication US5523299A, “5-(2-oxyphenyl)-pyrrole derivatives as dopamine D3 receptor antagonists” (SmithKline Beecham PLC, priority 1992, dated 1996).
Counter-ions that a name gives are not always drawn.

Target: human D3 dopamine receptors (Homo sapiens, UniProt P35462)
Assay: [125I] iodosulpride displacement binding to cloned dopamine receptors expressed in CHO cells
Details: displacement of 0.1 nM [125I] iodosulpride, cloned receptor in CHO cell membranes, 30 min at 37° C.
Method: The inhibition constants (Ki) of test compounds for displacement of [^125 I] iodosulpride binding to human D2 and D3 dopamine receptors expressed in CHO cells have been determined. […] Cultures were grown as monolayers or in suspension in standard cell culture media. Cells were recovered by scraping (from monolayers) or by centrifugation (from suspension cultures), and were washed two or three times by suspension in phosphate buffered saline followed by collection by centrifugation. Cell pellets were stored frozen at -40° C. Crude cell membranes were prepared by homogenisation followed by high-speed centrifugation, and characterisation of cloned receptors achieved by radioligand binding.
Cell pellets were gently thawed at room temperature, and resuspended in about 20 volumes of ice-cold 50 mM Tris salts (pH 7.4 @37° C.), 20 mM EDTA, 0.2M sucrose. The suspension was homogenised using an Ultra-Turrax at full speed for 15 sec. The homogenate was centrifuged at 18,000 r.p.m for 20 min at 4° C. in a Sorvall RC5C centrifuge. The membrane pellet was resuspended in ice-cold 50 mM Tris salts (pH 7.4 @37° C.), using an Ultra-Turrax, and recentrifuged at 18,000 r.p.m for 15 min at 4° C. in a Sorvall RC5C. The membranes were washed two more times with ice-cold 50 mM Tris salts (pH 7.4 @37° C.). The final pellet was resuspended in 50 mM Tris salts (pH 7.4 @37° C.), and the protein content determined using bovine serum albumin as a standard (Bradford, M. M. (1976) Anal. Biochem. 72, 248-254).
Crude cell membranes were incubated with 0.1 nM [^125 I] iodosulpride (~2000 Ci/mmol; Amersham, U.K.), and the test compound in a buffer containing 50 mM Tris salts (pH 7.4 @37° C.), 120 mM NaCl, 5 mM KCl, 2 mM CaCl2, 1 mM MgCl2, 0.1% (w/v) bovine serum albumin, in a total volume of 1 ml for 30 min at 37° C. Following incubation, samples were filtered using a Brandel Cell Harvester, and washed three times with ice-cold 50 mM Tris salts (pH 7.4 @37° C.), 120 mM NaCl5 mM KCl2 mM CaCl2, 1 mM MgCl2. The radioactivity on the filters was measured using a Cobra gamma counter (Canberra Packard). Non-specific binding was defined as the radioligand binding remaining after incubation in the presence of 100 μM iodosulpride. For competition curves, 14 concentrations (half-log dilutions) of competing cold drug were used.
Competition curves were analysed simultaneously whenever possible using non-linear least-squares fitting procedures, capable of fitting one, two or three site models.

Chain of human D3 dopamine receptors (P35462 whole entry): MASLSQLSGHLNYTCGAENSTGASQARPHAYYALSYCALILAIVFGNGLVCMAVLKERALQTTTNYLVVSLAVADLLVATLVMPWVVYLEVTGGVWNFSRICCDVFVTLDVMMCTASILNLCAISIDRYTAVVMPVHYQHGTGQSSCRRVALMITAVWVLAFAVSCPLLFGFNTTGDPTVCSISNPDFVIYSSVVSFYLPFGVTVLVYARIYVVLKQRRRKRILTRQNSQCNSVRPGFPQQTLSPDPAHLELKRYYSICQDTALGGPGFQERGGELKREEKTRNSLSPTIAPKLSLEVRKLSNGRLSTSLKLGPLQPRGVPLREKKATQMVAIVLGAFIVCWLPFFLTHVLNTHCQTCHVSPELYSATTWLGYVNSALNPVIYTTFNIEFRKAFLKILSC

IC50, 0.2 to 26 nM:
CCN(Cc1ccccc1)Cc1ccc(-c2cc(S(=O)(=O)CC)cc(Br)c2OC)[nH]1 [Example 30, 2-(3-Bromo-5-ethylsulphonyl-2-methoxyphenyl)-5-(N-benzyl-N-ethyl)aminomethyl-1H-pyrrole hydrochloride]
COc1cc(Br)cc(-c2ccc(C(C)N3CCCCC3)[nH]2)c1OC (stereo not shown) [Example 36, 2-(2,3-Dimethoxy-5-bromophenyl)-5-[1-(1-piperidinyl)ethyl]-1H-pyrrole hydrochloride]
CCN(Cc1ccccc1)Cc1ccc(-c2cc(S(=O)(=O)CC)ccc2OC)[nH]1 [Example 27, 2-(5-Ethylsulphonyl-2-methoxyphenyl)-5-(N-benzyl-N-ethyl)-aminomethyl-1H-pyrrole hydrochloride]
CCS(=O)(=O)c1ccc(OC)c(-c2ccc(C(C)N3CCCCC3)[nH]2)c1 (single isomer, unassigned; slower eluting) [Example 49, 2-(5-Ethylsulphonyl-2-methoxyphenyl)-5-[1-(1-piperidinyl)-ethyl)-1H-pyrrole, slower eluting enantiomer]
CCS(=O)(=O)c1ccc(OC)c(-c2ccc(C(C)N3CCCCC3)[nH]2)c1 (stereo not shown) [Example 16, 2-(5-Ethylsulphonyl-2-methoxyphenyl)-5-[1-(1-piperidinyl)-ethyl)-1H-pyrrolehydrochloride]
COc1c(Br)cc(Br)cc1-c1ccc(CN2CCCCC2)[nH]1 [Example 1, 2-(3,5-Dibromo-2-methoxyphenyl)-5-(1-piperidinylmethyl)-1H-pyrrole hydrochloride]
CCS(=O)(=O)c1ccc(OC)c(-c2ccc(CN3CCCCC3)[nH]2)c1 [Example 2, 2-(5-Ethylsulphonyl-2-methoxyphenyl)-5-(1-piperidinylmethyl)-1H-pyrrole]
